Columns and labels:
Type in all cases: functional
KM12 = assay: Cytotoxicity against human KM12 cells assessed as growth inhibition after 48 hrs by sulforhodamine B assay; settings: KM12, 48 h
HL-60(TB) = assay: Cytotoxicity against human HL-60(TB) cells assessed as growth inhibition after 48 hrs by sulforhodamine B assay; settings: HL-60, 48 h
MCF7 [1] = assay: Cytotoxicity against human MCF7 cells assessed as growth inhibition after 48 hrs by sulforhodamine B assay; settings: MCF7, 48 h
SN12C = assay: Cytotoxicity against human SN12C cells assessed as growth inhibition after 48 hrs by sulforhodamine B assay
PC-3 = assay: Cytotoxicity against human PC3 cells assessed as growth inhibition after 48 hrs by sulforhodamine B assay; settings: PC-3, 48 h
ACHN [2] = assay: Cytotoxicity against human ACHN cells assessed as growth inhibition after 48 hrs by sulforhodamine B assay
SNB-75 = assay: Cytotoxicity against human SNB75 cells assessed as growth inhibition after 48 hrs by sulforhodamine B assay; settings: SNB-75, 48 h
T47D = assay: Cytotoxicity against human T47D cells assessed as growth inhibition after 48 hrs by sulforhodamine B assay
BT-549 = assay: Cytotoxicity against human BT549 cells assessed as cell growth at 0.1 uM after 48 hrs by sulforhodamine B assay relative to control; settings: BT-549, 48 h, read-out: Activity
RXF 393 = assay: Cytotoxicity against human RXF393 cells assessed as cell growth at 0.01 uM after 48 hrs by sulforhodamine B assay relative to control; settings: RXF 393, 48 h, read-out: Activity
MDA-MB-435 = assay: Cytotoxicity against human MDA-MB-435 cells assessed as cell growth at 100 uM after 48 hrs by sulforhodamine B assay relative to control; settings: MDA-MB-435, 48 h, read-out: Activity
UO-31 = assay: Cytotoxicity against human UO31 cells assessed as cell growth at 0.01 uM after 48 hrs by sulforhodamine B assay relative to control; settings: UO-31, 48 h, read-out: Activity
NCI/ADR-RES [3] = assay: Cytotoxicity against human NCI/ADR-RES cells assessed as cell growth at 0.01 uM after 48 hrs by sulforhodamine B assay relative to control; settings: read-out: Activity
Malme-3M [4] = assay: Cytotoxicity against human MALME-3M cells assessed as cell growth at 0.1 uM after 48 hrs by sulforhodamine B assay relative to control; settings: read-out: Activity
SK-OV-3 [5] = assay: Cytotoxicity against human SKOV3 cells assessed as cell growth at 1 uM after 48 hrs by sulforhodamine B assay relative to control; settings: SK-OV-3, 48 h, read-out: Activity
NCI/ADR-RES [6] = assay: Cytotoxicity against human NCI/ADR-RES cells assessed as cell growth at 100 uM after 48 hrs by sulforhodamine B assay relative to control; settings: read-out: Activity
RPMI-8226 = assay: Cytotoxicity against human RPMI8226 cells assessed as cell growth at 10 uM after 48 hrs by sulforhodamine B assay relative to control; settings: RPMI-8226, 48 h, read-out: Activity
NCI-H23 = assay: Cytotoxicity against human NCI-H23 cells assessed as cell growth at 100 uM after 48 hrs by sulforhodamine B assay relative to control; settings: NCI-H23, 48 h, read-out: Activity
CCRF-CEM = assay: Cytotoxicity against human CCRF-CEM cells assessed as cell growth at 100 uM after 48 hrs by sulforhodamine B assay relative to control; settings: read-out: Activity
SW-620 [7] = assay: Cytotoxicity against human SW620 cells assessed as cell growth at 0.1 uM after 48 hrs by sulforhodamine B assay relative to control; settings: SW-620, 48 h, read-out: Activity
MDA-MB-468 = assay: Cytotoxicity against human MDA-MB-468 cells assessed as cell growth at 1 uM after 48 hrs by sulforhodamine B assay relative to control; settings: MDA-MB-468, 48 h, read-out: Activity
SR = assay: Cytotoxicity against human SR cells assessed as cell growth at 0.01 uM after 48 hrs by sulforhodamine B assay relative to control; settings: read-out: Activity
SW-620 [8] = assay: Cytotoxicity against human SW620 cells assessed as cell growth at 100 uM after 48 hrs by sulforhodamine B assay relative to control; settings: SW-620, 48 h, read-out: Activity
SK-OV-3 [9] = assay: Cytotoxicity against human SKOV3 cells assessed as cell growth at 10 uM after 48 hrs by sulforhodamine B assay relative to control; settings: SK-OV-3, 48 h, read-out: Activity
UACC-62 = assay: Cytotoxicity against human UACC62 cells assessed as cell growth at 1 uM after 48 hrs by sulforhodamine B assay relative to control; settings: UACC-62, 48 h, read-out: Activity
786-0 = assay: Cytotoxicity against human 786-0 cells assessed as cell growth at 100 uM after 48 hrs by sulforhodamine B assay relative to control; settings: 786-0, 48 h, read-out: Activity
ACHN [10] = assay: Cytotoxicity against human ACHN cells assessed as cell growth at 100 uM after 48 hrs by sulforhodamine B assay relative to control; settings: read-out: Activity
K562 = assay: Cytotoxicity against human K562 cells assessed as cell growth at 10 uM after 48 hrs by sulforhodamine B assay relative to control; settings: K562, 48 h, read-out: Activity
NCI-H460 = assay: Cytotoxicity against human NCI-H460 cells assessed as cell growth at 0.01 uM after 48 hrs by sulforhodamine B assay relative to control; settings: NCI-H460, 48 h, read-out: Activity
HT-29 = assay: Cytotoxicity against human HT-29 cells assessed as cell growth at 100 uM after 48 hrs by sulforhodamine B assay relative to control; settings: HT-29, 48 h, read-out: Activity
A498 = assay: Cytotoxicity against human A498 cells assessed as cell growth at 0.1 uM after 48 hrs by sulforhodamine B assay relative to control; settings: A498, 48 h, read-out: Activity
MCF7 [11] = assay: Cytotoxicity against human MCF7 cells assessed as cell growth at 10 uM after 48 hrs by sulforhodamine B assay relative to control; settings: MCF7, 48 h, read-out: Activity
UACC-257 = assay: Cytotoxicity against human UACC257 cells assessed as cell growth at 1 uM after 48 hrs by sulforhodamine B assay relative to control; settings: UACC-257, 48 h, read-out: Activity
SW-620 [12] = assay: Cytotoxicity against human SW620 cells assessed as cell growth at 10 uM after 48 hrs by sulforhodamine B assay relative to control; settings: SW-620, 48 h, read-out: Activity
Malme-3M [13] = assay: Cytotoxicity against human MALME-3M cells assessed as cell growth at 1 uM after 48 hrs by sulforhodamine B assay relative to control; settings: read-out: Activity

In the case of `COc1ccc(-c2cc(/C=C/C(=O)c3ccc4c(c3)OCO4)[nH]n2)cc1OC`, the GI50 (KM12) is reported as 0.62 µM, the GI50 (HL-60(TB)) is reported as 2.76 µM and the GI50 (MCF7 [1]) is reported as 0.93 µM. The GI50 (SN12C) was 4.96 µM, the GI50 (PC-3) was 1.98 µM and the GI50 (ACHN [2]) was 1.59 µM. For the same compound, the GI50 (SNB-75) was 1.16 µM and the GI50 (T47D) was 1.36 µM.
Compound `COc1ccc(-c2cc(/C=C/C(=O)c3ccc(N)cc3)[nH]n2)cc1OC` has a growth at 0.1 µM (BT-549) of 92%, a growth at 0.01 µM (RXF 393) of 99% and a growth at 100 µM (MDA-MB-435) of -72%. For the same compound, the growth at 0.01 µM (UO-31) was 92%, the growth at 0.01 µM (NCI/ADR-RES [3]) was 102% and the growth at 0.1 µM (Malme-3M [4]) was 108%. The growth at 1 µM (SK-OV-3 [5]) was 97%, the growth at 100 µM (NCI/ADR-RES [6]) was 2% and the growth at 10 µM (RPMI-8226) was -20%. The growth at 100 µM (NCI-H23) was -51%, the GI50 (KM12) was 1.68 µM and the LC50 (KM12) was 6.67 µM. For the same compound, the TGI (KM12) was 3.35 µM, the GI50 (HL-60(TB)) was 3.45 µM and the LC50 (HL-60(TB)) was greater than 100 µM. For the same compound, the TGI (HL-60(TB)) was greater than 100 µM, the growth at 100 µM (CCRF-CEM) was -22% and the GI50 (MCF7 [1]) was 2.28 µM. It also gave an LC50 (MCF7 [1]) of 71.2 µM, a TGI (MCF7 [1]) of 8.48 µM and a GI50 (SN12C) of 3.53 µM. The LC50 (SN12C) was 41.3 µM, the TGI (SN12C) was 13.7 µM and the GI50 (PC-3) was 3.71 µM. The LC50 (PC-3) was greater than 100 µM, the TGI (PC-3) was 19.8 µM and the growth at 0.1 µM (SW-620 [7]) was 97%. It also gave a GI50 (ACHN [2]) of 1.67 µM, an LC50 (ACHN [2]) of 6.48 µM and a TGI (ACHN [2]) of 3.29 µM. For the same compound, the growth at 1 µM (MDA-MB-468) was 77%, the growth at 0.01 µM (SR) was 98% and the growth at 100 µM (SW-620 [8]) was -53%. For the same compound, the growth at 10 µM (SK-OV-3 [9]) was 29%, the growth at 1 µM (UACC-62) was 95% and the growth at 100 µM (786-0) was -97%. It also gave a GI50 (SNB-75) of 2.74 µM, an LC50 (concentration killing 50% of cells) (SNB-75) of 39 µM and a TGI (SNB-75) of 14.2 µM. The growth at 100 µM (ACHN [10]) was -95%, the growth at 10 µM (K562) was 3% and the growth at 0.01 µM (NCI-H460) was 101%. It also gave a growth at 100 µM (HT-29) of -59%, a GI50 (T47D) of 4.25 µM and an LC50 (T47D) greater than 100 µM. The TGI (T47D) was 26 µM, the growth at 0.1 µM (A498) was 80% and the growth at 10 µM (MCF7 [11]) was -6%. For the same compound, the growth at 1 µM (UACC-257) was 96%, the growth at 10 µM (SW-620 [12]) was -18% and the growth at 1 µM (Malme-3M [13]) was 114%.
`COc1ccc(C(=O)/C=C/c2cc(-c3ccc(OC)c(OC)c3)n[nH]2)cc1OC` was tested, and the growth at 0.1 µM (BT-549) was 89%, the growth at 0.01 µM (RXF 393) was 94% and the growth at 100 µM (MDA-MB-435) was 2%. It also gave a growth at 0.01 µM (UO-31) of 89%, a growth at 0.01 µM (NCI/ADR-RES [3]) of 104% and a growth at 0.1 µM (Malme-3M [4]) of 106%. For the same compound, the growth at 1 µM (SK-OV-3 [5]) was 90%, the growth at 100 µM (NCI/ADR-RES [6]) was -15% and the growth at 10 µM (RPMI-8226) was -30%. It also gave a growth at 100 µM (NCI-H23) of -21%, a GI50 (KM12) of 0.625 µM and a TGI (KM12) of 2.08 µM. For the same compound, the GI50 (HL-60(TB)) was 2.76 µM, the TGI (HL-60(TB)) was greater than 100 µM and the growth at 100 µM (CCRF-CEM) was -20%. It also gave a GI50 (MCF7 [1]) of 0.937 µM, a TGI (MCF7 [1]) of 8.02 µM and a GI50 (SN12C) of 1.92 µM. It also gave a TGI (SN12C) of 4.82 µM, a GI50 (PC-3) of 1.98 µM and a TGI (PC-3) of 35.7 µM. The growth at 0.1 µM (SW-620 [7]) was 95%, the GI50 (ACHN [2]) was 1.59 µM and the TGI (ACHN [2]) was 3.83 µM. The growth at 1 µM (MDA-MB-468) was 55%, the growth at 0.01 µM (SR) was 94% and the growth at 100 µM (SW-620 [8]) was -27%. The growth at 10 µM (SK-OV-3 [9]) was 9%, the growth at 1 µM (UACC-62) was 89% and the growth at 100 µM (786-0) was -32%. The GI50 (SNB-75) was 1.16 µM, the TGI (SNB-75) was 2.96 µM and the growth at 100 µM (ACHN [10]) was -60%. The growth at 10 µM (K562) was 3%, the growth at 0.01 µM (NCI-H460) was 102% and the growth at 100 µM (HT-29) was -39%. The GI50 (T47D) was 1.36 µM, the TGI (T47D) was 6.65 µM and the growth at 0.1 µM (A498) was 81%. It also gave a growth at 10 µM (MCF7 [11]) of -5%, a growth at 1 µM (UACC-257) of 96% and a growth at 10 µM (SW-620 [12]) of -24%. It also gave a growth at 1 µM (Malme-3M [13]) of 104%.

— ChEMBL document CHEMBL4138123, “Design, synthesis and biological evaluation of novel pyrazolochalcones as potential modulators of PI3K/Akt/mTOR pathway and inducers of apoptosis in breast cancer cells” (Eur J Med Chem, 2017)
